Active and inactive are the calls of the source.
Assays:
[1] = test system: Trypanosoma cruzi; experiment: (§1) Antitrypanosomal activity against Trypanosoma cruzi K98 bloodstream form infected in C3H/HeNk mouse assessed as change in QRS morphology at 30 mg/kg/day, po administered via gavage for 30 consecutive days starting from 90 days post infection and measured at 120 days post infection by electrocardiographic analysis (reference value: 25 %); assay type: functional
[2] = test system: Trypanosoma cruzi; experiment: (§2) Antitrypanosomal activity against Trypanosoma cruzi K98 bloodstream form infected in C3H/HeNk mouse assessed as reduction in parasite burden in blood at 30 to 75 mg/kg/day, po administered via gavage for 30 consecutive days starting from 90 days post infection and measured at 180 days post infection by qRT-PCR analysis; assay type: functional, organism-based
[3] = test system: Trypanosoma cruzi; experiment: as §2, with “effect on RR interval” for “reduction in parasite burden in blood”, “120 to 170” for “180”, “electrocardiographic” for “qRT-PCR”; assay type: functional, organism-based
[4] = test system: Trypanosoma cruzi; experiment: as §1, with “170” for “120”; assay type: functional
[5] = test system: Trypanosoma cruzi; experiment: as §2, with “effect on heart rate” for “reduction in parasite burden in blood”, “120 to 170” for “180”, “electrocardiographic” for “qRT-PCR”; assay type: functional, organism-based
[6] = Toxicity in C3H/HeNk mouse infected with Trypanosoma cruzi K98 bloodstream form assessed as decrease in body weight at 75 mg/kg/day, po administered via gavage for 30 consecutive days starting from 90 days post infection measured at 150 days post infection; assay type: organism-based; details: in vivo
[7] = Toxicity in C3H/HeNk mouse infected with Trypanosoma cruzi K98 bloodstream form assessed as decrease in body weight at 15 mg/kg/day, po administered via gavage for 30 consecutive days starting from 90 days post infection measured at 150 days post infection in presence of benznidazole; assay type: organism-based; details: in vivo
[8] = Toxicity in C3H/HeNk mouse infected with Trypanosoma cruzi K98 bloodstream form assessed as decrease in body weight at 30 mg/kg/day, po administered via gavage for 30 consecutive days starting from 90 days post infection measured at 150 days post infection; assay type: organism-based; details: in vivo
[9] = test system: Trypanosoma cruzi; experiment: as §2, with “skeletal tissue inflammation” for “parasite burden in blood”, “at” for “at 30 to”, “hematoxylin and eosin staining based assay” for “qRT-PCR analysis”; assay type: functional, organism-based
[10] = test system: Vero; experiment: Cytotoxicity against African green monkey Vero cells at 0.5 to 20 uM after 72 hrs by propidium iodide staining based flow cytometric analysis; assay type: cell-based; details: chlorocebus sabaeus
[11] = Toxicity in C3H/HeNk mouse infected with Trypanosoma cruzi K98 bloodstream form assessed as decrease in body weight at 30 mg/kg/day, po administered via gavage for 30 consecutive days starting from 90 days post infection measured at 150 days post infection in presence of benznidazole; assay type: organism-based; details: in vivo
[12] = test system: Trypanosoma cruzi; experiment: as §2, with “cardiac tissue inflammation” for “parasite burden in blood”, “hematoxylin and eosin staining based assay” for “qRT-PCR analysis”; assay type: functional, organism-based
[13] = test system: Trypanosoma cruzi; experiment: as §2, with “effect on PR interval” for “reduction in parasite burden in blood”, “120 to 170” for “180”, “electrocardiographic” for “qRT-PCR”; assay type: functional, organism-based
[14] = Toxicity in C3H/HeNk mouse infected with Trypanosoma cruzi K98 bloodstream form assessed as body weight gain at 30 mg/kg/day, po administered via gavage for 30 consecutive days starting from 90 days post infection measured up to 120 days post infection; assay type: organism-based; details: in vivo
[15] = Toxicity in C3H/HeNk mouse infected with Trypanosoma cruzi K98 bloodstream form assessed as body weight gain at 75 mg/kg/day, po administered via gavage for 30 consecutive days starting from 90 days post infection measured up to 120 days post infection; assay type: organism-based; details: in vivo
[16] = test system: Trypanosoma cruzi; experiment: as §2, with “effect on heart rate duration” for “reduction in parasite burden in blood”, “120 to 170” for “180”, “electrocardiographic” for “qRT-PCR”; assay type: functional, organism-based
[17] = test system: Trypanosoma cruzi; experiment: as §2, with “in cardiac muscle” for “in blood”; assay type: functional, organism-based
[18] = test system: Trypanosoma cruzi; experiment: as §2, with “in skeletal muscle” for “in blood”; assay type: functional, organism-based
[19] = test system: Trypanosoma cruzi; experiment: as §1, with “at 75” for “at 30”; assay type: functional
[20] = test system: Trypanosoma cruzi; experiment: as §2, with “effect on QT interval” for “reduction in parasite burden in blood”, “120 to 170” for “180”, “electrocardiographic” for “qRT-PCR”; assay type: functional, organism-based
[21] = test system: Trypanosoma cruzi; experiment: as §1, with “as” for “as change in”, “at 75” for “at 30”, “at 170” for “at 120”; assay type: functional
[22] = test system: Trypanosoma cruzi; experiment: Antitrypanosomal activity against Trypanosoma cruzi K98 bloodstream form infected in C3H/HeNk mouse assessed as adipocytes replacement in skeletal muscle by measuring number of adipocyte at 30 mg/kg/day, po administered via gavage for 30 consecutive days starting from 90 days post infection and measured at 180 days post infection in presence of benznidazole by hematoxylin and eosin staining based …; assay type: functional
[23] = Toxicity in C3H/HeNk mouse infected with Trypanosoma cruzi K98 bloodstream form assessed as body weight gain at 30 mg/kg/day, po administered via gavage for 30 consecutive days starting from 90 days post infection measured up to 120 days post infection in presence of benznidazole; assay type: organism-based; details: in vivo
[24] = test system: Trypanosoma cruzi; experiment: (§3) Antitrypanosomal activity against Trypanosoma cruzi K98 bloodstream form infected in C3H/HeNk mouse assessed as reduction in parasite burden in cardiac muscle at 30 mg/kg/day, po administered via gavage for 30 consecutive days starting from 90 days post infection and measured at 180 days post infection in presence of benznidazole by qRT-PCR analysis; assay type: functional, organism-based
[25] = test system: Trypanosoma cruzi; experiment: as §3, with “in” for “in parasite burden in”, “tissue inflammation” for “muscle”, “hematoxylin and eosin staining based assay” for “qRT-PCR analysis”; assay type: functional, organism-based
[26] = test system: Trypanosoma cruzi; experiment: as §3, with “effect on PR interval” for “reduction in parasite burden in cardiac muscle”, “120 to 170” for “180”, “electrocardiographic” for “qRT-PCR”; assay type: functional, organism-based
[27] = test system: Trypanosoma cruzi; experiment: as §3, with “effect on RR interval” for “reduction in parasite burden in cardiac muscle”, “120 to 170” for “180”, “electrocardiographic” for “qRT-PCR”; assay type: functional, organism-based
[28] = test system: Trypanosoma cruzi; experiment: as §1, with “post infection in presence of benznidazole by electrocardiographic” for “post infection by electrocardiographic”; assay type: functional
[29] = test system: Trypanosoma cruzi; experiment: as §3, with “blood” for “cardiac muscle”; assay type: functional, organism-based
[30] = test system: Trypanosoma cruzi; experiment: as §3, with “effect on heart rate” for “reduction in parasite burden in cardiac muscle”, “120 to 170” for “180”, “electrocardiographic” for “qRT-PCR”; assay type: functional, organism-based
[31] = test system: Trypanosoma cruzi; experiment: as §3, with “effect on QT interval” for “reduction in parasite burden in cardiac muscle”, “120 to 170” for “180”, “electrocardiographic” for “qRT-PCR”; assay type: functional, organism-based
[32] = test system: Trypanosoma cruzi; experiment: as §3, with “skeletal” for “cardiac”; assay type: functional, organism-based
[33] = test system: Trypanosoma cruzi; experiment: (§4) Antitrypanosomal activity against Trypanosoma cruzi K98 bloodstream form infected in C3H/HeNk mouse assessed as change in QRS morphology at 30 mg/kg/day, po administered via gavage for 30 consecutive days starting from 90 days post infection and measured at 170 days post infection in presence of benznidazole by electrocardiographic analysis (reference value: 25 %); assay type: functional
[34] = test system: Trypanosoma cruzi; experiment: (§5) Antitrypanosomal activity against Trypanosoma cruzi K98 bloodstream form infected in C3H/HeNk mouse assessed as effect on heart rate duration at 30 mg/kg/day, po administered via gavage for 30 consecutive days starting from 90 days post infection and measured at 120 to 170 days post infection in presence of benznidazole by electrocardiographic analysis; assay type: functional, organism-based
[35] = test system: Trypanosoma cruzi; experiment: as §4, with “at 15” for “at 30”; assay type: functional
[36] = test system: Trypanosoma cruzi; experiment: as §4, with “at 15” for “at 30”, “at 120” for “at 170”; assay type: functional
[37] = test system: Trypanosoma cruzi; experiment: as §3, with “in” for “in parasite burden in”, “cardiac tissue inflammation” for “cardiac muscle”, “at 15” for “at 30”, “by hematoxylin and eosin staining based assay” for “by qRT-PCR analysis”; assay type: functional, organism-based
[38] = test system: Trypanosoma cruzi; experiment: as §5, with “rate” for “rate duration”, “at 15” for “at 30”; assay type: functional, organism-based
[39] = test system: Trypanosoma cruzi; experiment: as §3, with “in blood” for “in cardiac muscle”, “at 15” for “at 30”; assay type: functional, organism-based
[40] = Toxicity in C3H/HeNk mouse infected with Trypanosoma cruzi K98 bloodstream form assessed as body weight gain at 15 mg/kg/day, po administered via gavage for 30 consecutive days starting from 90 days post infection measured up to 120 days post infection in presence of benznidazole; assay type: organism-based; details: in vivo
[41] = test system: Trypanosoma cruzi; experiment: as §3, with “at 15” for “at 30”; assay type: functional, organism-based
[42] = test system: Trypanosoma cruzi; experiment: as §5, with “on RR interval” for “on heart rate duration”, “at 15” for “at 30”; assay type: functional, organism-based
[43] = test system: Trypanosoma cruzi; experiment: as §5, with “on QT interval” for “on heart rate duration”, “at 15” for “at 30”; assay type: functional, organism-based
[44] = test system: Trypanosoma cruzi; experiment: as §5, with “on PR interval” for “on heart rate duration”, “at 15” for “at 30”; assay type: functional, organism-based
[45] = test system: Trypanosoma cruzi; experiment: Antitrypanosomal activity against Trypanosoma cruzi K98 bloodstream form infected in C3H/HeNk mouse assessed as adipocytes replacement in skeletal muscle by measuring number of adipocyte at 15 mg/kg/day, po administered via gavage for 30 consecutive days starting from 90 days post infection and measured at 180 days post infection in presence of benznidazole by hematoxylin and eosin staining based …; assay type: functional
[46] = test system: Trypanosoma cruzi; experiment: as §3, with “in skeletal” for “in cardiac”, “at 15” for “at 30”; assay type: functional, organism-based
[47] = test system: Trypanosoma cruzi; experiment: as §5, with “at 15” for “at 30”; assay type: functional, organism-based

Measured: Activity

O=C(Cn1ccnc1[N+](=O)[O-])NCc1ccccc1 [BENZNIDAZOLE]
80%: [21]
0%: [1] | [4] | [19]
inactive: [3] | [5] | [9] | [13] | [16] | [20]
active: [2] | [12] | [17] | [18]
Toxic: [6]
Non-Toxic: [7] | [8] | [10] | [11] | [14] | [15]

CC(C)/N=c1\cc2n(-c3ccc(Cl)cc3)c3ccccc3nc-2cc1Nc1ccc(Cl)cc1 [CLOFAZIMINE]
1 - 3: [22]
Non-Toxic: [23] | [10]
inactive: [24] | [25] | [26] | [27] | [30] | [31] | [34]
0%: [28] | [33]
active: [29] | [32]

COC(=O)C1=C(C)NC(C)=C(C(=O)O[C@@H]2CCCN(Cc3ccccc3)C2)[C@@H]1c1cccc([N+](=O)[O-])c1.Cl
50%: [35] | [36]
inactive: [38] | [41] | [42] | [43] | [44] | [47]
Non-Toxic: [10] | [40]
active: [37] | [39] | [46]
1 - 3: [45]

Source: ChEMBL document CHEMBL4312001, “Combined therapy with Benznidazole and repurposed drugs Clofazimine and Benidipine for chronic Chagas disease” (Eur J Med Chem, 2019)
